Test results: ChEMBL document CHEMBL1155952, “4-Amino-6-arylamino-pyrimidine-5-carbaldehyde hydrazones as potent ErbB-2/EGFR dual kinase inhibitors” (Bioorg Med Chem Lett, 2008)

Columns and labels:
[1] = target: T1, Receptor tyrosine-protein kinase erbB-2 (Homo sapiens, UniProt P04626); assay: Inhibition of human ErbB2
[2] = target: Epidermal growth factor receptor (Homo sapiens, UniProt P00533); assay: Inhibition of human EGFR expressed in SF9 cells
[3] = target: T1, Receptor tyrosine-protein kinase erbB-2; assay: Inhibition of human ErB2 phosphorylation in human SKBR3 cells; assay type: cell-based, SK-BR-3
[4] = system: HeLa; assay: Antiproliferative activity against human HeLa cells; assay type: functional, cell-based
[5] = target: RAF proto-oncogene serine/threonine-protein kinase (Homo sapiens) (UniProt P04049); assay: Inhibition of c-Raf at 3 uM
[6] = Plasma concentration in Sprague-Dawley rat at 10 mg/kg, po administered in 0.5% hydroxypropyl methylcellulose after 2 hrs; assay type: ADME, organism-based; set-up: dose 10 mg/kg, route oral
[7] = Plasma concentration in Sprague-Dawley rat at 10 mg/kg, po administered in 0.5% hydroxypropyl methylcellulose after 0.5 hrs; assay type: ADME, organism-based; set-up: dose 10 mg/kg, route oral
[8] = system: NCI-N87; assay: Antiproliferative activity against human N87 cells overexpressing ErB2; assay type: functional, cell-based
[9] = system: SK-BR-3; assay: Antiproliferative activity against human SKBR3 cells overexpressing ErB2; assay type: functional, cell-based
[10] = target: Tyrosine-protein kinase Lck (Homo sapiens) (UniProt P06239); assay: Inhibition of LCK at 3 uM
[11] = system: BT-474; assay: cells; conditions: Homo sapiens
Description: Antiproliferative activity against human BT474 cells overexpressing ErB2

[12] = Plasma concentration in Sprague-Dawley rat at 10 mg/kg, po administered in 0.5% hydroxypropyl methylcellulose after 1 hr; assay type: ADME, organism-based; set-up: dose 10 mg/kg, route oral
[13] = Plasma concentration in Sprague-Dawley rat at 10 mg/kg, po administered in 10% solutol in D5W after 1 hr; assay type: ADME, organism-based; set-up: dose 10 mg/kg, route oral
[14] = Plasma concentration in Sprague-Dawley rat at 10 mg/kg, po administered in 10% solutol in D5W after 4 hrs; assay type: ADME, organism-based; set-up: dose 10 mg/kg, route oral
[15] = Plasma concentration in Sprague-Dawley rat at 10 mg/kg, po administered in 10% solutol in D5W after 0.5 hrs; assay type: ADME, organism-based; set-up: dose 10 mg/kg, route oral
[16] = Plasma concentration in Sprague-Dawley rat at 10 mg/kg, po administered in 10% solutol in D5W after 2 hrs; assay type: ADME, organism-based; set-up: dose 10 mg/kg, route oral

Epidermal growth factor receptor, sequence (P00533 whole entry): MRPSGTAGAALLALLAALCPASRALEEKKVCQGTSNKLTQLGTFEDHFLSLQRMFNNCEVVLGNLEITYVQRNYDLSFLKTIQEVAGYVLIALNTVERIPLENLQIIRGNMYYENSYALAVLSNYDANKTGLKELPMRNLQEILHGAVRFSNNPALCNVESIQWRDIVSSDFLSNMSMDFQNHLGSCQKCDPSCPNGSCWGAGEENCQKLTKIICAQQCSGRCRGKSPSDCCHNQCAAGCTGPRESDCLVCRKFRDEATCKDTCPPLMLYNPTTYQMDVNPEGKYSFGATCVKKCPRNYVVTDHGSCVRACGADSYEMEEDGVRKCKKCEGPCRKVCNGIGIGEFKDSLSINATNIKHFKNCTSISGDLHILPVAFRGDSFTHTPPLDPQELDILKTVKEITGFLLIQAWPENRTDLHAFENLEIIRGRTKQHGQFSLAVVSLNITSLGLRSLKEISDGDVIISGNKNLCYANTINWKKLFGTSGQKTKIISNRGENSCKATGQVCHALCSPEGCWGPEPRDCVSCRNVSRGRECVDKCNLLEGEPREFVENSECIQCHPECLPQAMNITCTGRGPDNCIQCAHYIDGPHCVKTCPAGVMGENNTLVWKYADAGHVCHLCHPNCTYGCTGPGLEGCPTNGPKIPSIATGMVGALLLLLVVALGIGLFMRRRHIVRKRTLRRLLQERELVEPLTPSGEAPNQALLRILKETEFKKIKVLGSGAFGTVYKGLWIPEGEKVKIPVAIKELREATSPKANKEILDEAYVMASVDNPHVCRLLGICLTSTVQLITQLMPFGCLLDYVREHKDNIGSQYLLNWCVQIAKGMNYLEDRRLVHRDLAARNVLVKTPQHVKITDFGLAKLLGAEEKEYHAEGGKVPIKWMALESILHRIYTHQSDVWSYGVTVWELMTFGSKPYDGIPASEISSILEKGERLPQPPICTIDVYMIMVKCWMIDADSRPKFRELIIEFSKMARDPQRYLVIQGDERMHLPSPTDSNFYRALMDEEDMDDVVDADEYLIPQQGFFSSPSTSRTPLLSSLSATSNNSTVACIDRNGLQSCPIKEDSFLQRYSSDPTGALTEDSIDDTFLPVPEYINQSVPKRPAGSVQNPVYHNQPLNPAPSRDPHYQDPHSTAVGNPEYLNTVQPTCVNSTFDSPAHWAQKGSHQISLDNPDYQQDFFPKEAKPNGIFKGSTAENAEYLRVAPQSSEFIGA
T1 sequence (P04626 whole entry): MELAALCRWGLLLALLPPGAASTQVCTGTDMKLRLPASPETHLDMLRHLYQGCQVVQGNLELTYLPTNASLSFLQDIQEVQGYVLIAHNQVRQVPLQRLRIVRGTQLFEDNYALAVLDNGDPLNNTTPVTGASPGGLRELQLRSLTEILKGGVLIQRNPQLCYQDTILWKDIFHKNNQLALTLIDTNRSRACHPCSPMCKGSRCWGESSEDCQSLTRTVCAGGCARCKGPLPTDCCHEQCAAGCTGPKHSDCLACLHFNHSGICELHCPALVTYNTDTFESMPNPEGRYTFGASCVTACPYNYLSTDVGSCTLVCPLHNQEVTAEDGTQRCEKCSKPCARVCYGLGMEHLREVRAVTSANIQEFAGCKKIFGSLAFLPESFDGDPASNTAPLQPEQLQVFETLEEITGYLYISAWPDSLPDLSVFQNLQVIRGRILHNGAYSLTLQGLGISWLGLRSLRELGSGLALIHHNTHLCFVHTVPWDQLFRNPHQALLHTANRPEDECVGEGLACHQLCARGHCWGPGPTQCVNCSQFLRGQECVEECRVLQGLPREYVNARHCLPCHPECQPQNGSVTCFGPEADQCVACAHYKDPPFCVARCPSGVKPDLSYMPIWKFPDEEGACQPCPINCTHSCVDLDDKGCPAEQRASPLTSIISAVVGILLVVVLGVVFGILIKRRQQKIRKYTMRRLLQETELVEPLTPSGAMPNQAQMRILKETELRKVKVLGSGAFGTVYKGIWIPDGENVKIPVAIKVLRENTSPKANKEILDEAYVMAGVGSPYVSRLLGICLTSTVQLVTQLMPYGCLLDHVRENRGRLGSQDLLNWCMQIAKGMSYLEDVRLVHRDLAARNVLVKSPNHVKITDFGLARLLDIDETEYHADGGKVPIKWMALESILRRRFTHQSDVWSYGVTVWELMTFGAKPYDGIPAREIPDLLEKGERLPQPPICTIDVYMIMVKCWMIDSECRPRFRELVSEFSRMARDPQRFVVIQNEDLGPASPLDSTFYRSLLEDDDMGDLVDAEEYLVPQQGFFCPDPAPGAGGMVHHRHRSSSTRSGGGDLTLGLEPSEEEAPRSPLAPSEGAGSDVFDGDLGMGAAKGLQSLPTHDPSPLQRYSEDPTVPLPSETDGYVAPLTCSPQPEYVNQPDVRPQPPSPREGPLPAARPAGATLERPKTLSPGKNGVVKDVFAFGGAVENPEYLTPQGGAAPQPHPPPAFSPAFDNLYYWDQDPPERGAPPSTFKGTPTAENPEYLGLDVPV
Tyrosine-protein kinase Lck (Homo sapiens), sequence (P06239 2-509 limits assumed): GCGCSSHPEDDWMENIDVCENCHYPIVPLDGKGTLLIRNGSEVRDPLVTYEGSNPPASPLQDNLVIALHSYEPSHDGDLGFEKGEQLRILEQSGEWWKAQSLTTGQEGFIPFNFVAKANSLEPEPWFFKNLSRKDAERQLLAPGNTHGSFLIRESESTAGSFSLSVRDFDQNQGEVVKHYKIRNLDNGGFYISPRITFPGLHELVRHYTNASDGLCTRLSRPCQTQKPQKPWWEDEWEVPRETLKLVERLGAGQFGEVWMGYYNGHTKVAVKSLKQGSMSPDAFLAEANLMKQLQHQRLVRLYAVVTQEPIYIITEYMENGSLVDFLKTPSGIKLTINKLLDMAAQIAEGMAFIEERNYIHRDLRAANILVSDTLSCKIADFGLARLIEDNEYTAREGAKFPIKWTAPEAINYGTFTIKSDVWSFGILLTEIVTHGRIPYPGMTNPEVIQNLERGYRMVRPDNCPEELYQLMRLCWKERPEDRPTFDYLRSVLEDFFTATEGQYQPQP
RAF proto-oncogene serine/threonine-protein kinase (Homo sapiens), sequence (P04049 whole entry): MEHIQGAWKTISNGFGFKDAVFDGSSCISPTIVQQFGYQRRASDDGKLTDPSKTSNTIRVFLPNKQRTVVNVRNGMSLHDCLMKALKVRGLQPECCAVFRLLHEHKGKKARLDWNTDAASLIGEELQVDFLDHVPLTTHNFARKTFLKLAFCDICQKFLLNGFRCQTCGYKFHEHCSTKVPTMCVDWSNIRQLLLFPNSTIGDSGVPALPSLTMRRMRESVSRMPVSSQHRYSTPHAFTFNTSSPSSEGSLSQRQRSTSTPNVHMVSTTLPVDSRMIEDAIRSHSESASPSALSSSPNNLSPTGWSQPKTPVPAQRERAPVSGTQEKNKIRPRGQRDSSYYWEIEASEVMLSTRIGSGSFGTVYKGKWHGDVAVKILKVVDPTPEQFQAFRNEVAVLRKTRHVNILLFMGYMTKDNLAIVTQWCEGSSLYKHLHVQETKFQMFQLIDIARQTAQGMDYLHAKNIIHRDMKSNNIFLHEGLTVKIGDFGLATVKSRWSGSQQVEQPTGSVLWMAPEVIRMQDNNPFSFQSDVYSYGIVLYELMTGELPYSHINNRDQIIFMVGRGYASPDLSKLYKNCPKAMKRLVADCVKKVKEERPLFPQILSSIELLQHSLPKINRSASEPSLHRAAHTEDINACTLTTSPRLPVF

Row | SMILES | IC50 [1] | IC50 [2] | IC50 [3] | IC50 [4] | inhibition [5] | concentration at 2 h [6] | concentration at 0.5 h [7] | IC50 [8] | IC50 [9] | inhibition [10] | IC50 [11] | concentration at 1 h [12] | concentration at 1 h [13] | concentration at 4 h [14] | concentration at 0.5 h [15] | concentration at 2 h [16]
1 | CN1CCN(/N=C/c2c(N)ncnc2Nc2ccc3c(cnn3Cc3cccc(F)c3)c2)CC1 | 8 nM | 16 nM | 509 nM | – | – | – | – | – | – | – | – | – | – | – | – | –
2 | Nc1ncnc(Nc2ccc3c(cnn3Cc3cccc(F)c3)c2)c1/C=N/N1CCOCC1 | 7 nM | 16 nM | 83 nM | > 100000 nM | 47% | 1.5 ng/mL | 26.1 ng/mL | 91 nM | 122 nM | 71% | 31 nM | 21.6 ng/mL | – | – | – | –
3 | CN(C)/N=C/c1c(N)ncnc1Nc1ccc2c(cnn2Cc2cccc(F)c2)c1 | 2 nM | 8 nM | 105 nM | > 100000 nM | – | – | – | 131 nM | 148 nM | – | 63 nM | – | 6.3 ng/mL | 4.6 ng/mL | 10.1 ng/mL | 13.2 ng/mL
4 | Nc1ncnc(Nc2ccc3c(cnn3Cc3cccc(F)c3)c2)c1/C=N/N1CCN(CCO)CC1 | 8 nM | 9 nM | 54 nM | > 100000 nM | – | – | – | 58 nM | 58 nM | – | 14 nM | – | – | – | – | –
5 | Nc1ncnc(Nc2ccc3c(cnn3Cc3cccc(F)c3)c2)c1/C=N/N1CCCCC1 | 18 nM | – | 148 nM | > 10000 nM | 50% | 32.4 ng/mL | 23.4 ng/mL | 365 nM | 691 nM | 60% | 49 nM | 12.6 ng/mL | – | – | – | –
6 | COc1ccc(/N=C/c2c(N)ncnc2Nc2ccc3c(cnn3Cc3cccc(F)c3)c2)cc1 | 118 nM | 49 nM | 1290 nM | – | – | – | – | – | – | – | – | – | – | – | – | –
7 | COC[C@@H]1CCCN1/N=C/c1c(N)ncnc1Nc1ccc2c(cnn2Cc2cccc(F)c2)c1 | 39 nM | 26 nM | 426 nM | – | – | – | – | – | – | – | – | – | – | – | – | –
8 | Nc1ncnc(Nc2ccc3c(cnn3Cc3cccc(F)c3)c2)c1/C=N/NCC(F)(F)F | 20 nM | 52 nM | 258 nM | – | – | – | – | – | – | – | – | – | – | – | – | –
9 | COC[C@H]1CCCN1/N=C/c1c(N)ncnc1Nc1ccc2c(cnn2Cc2cccc(F)c2)c1 | 72 nM | 31 nM | – | – | – | – | – | – | – | – | – | – | – | – | – | –
10 | CN/N=C/c1c(N)ncnc1Nc1ccc2c(cnn2Cc2cccc(F)c2)c1 | 84 nM | 12 nM | 361 nM | – | – | – | – | – | – | – | – | – | – | – | – | –
